Measurements: EP0287819A1, “5-(phenyl or phenoxyalkyl)-3-(2-furanyl or 2-thienyl)-3-(1H-imidazol-1-ylmethyl)-2-methylisoxazolidines” (FISONS CORPORATION, priority 1987, dated 1988)
Values after ≈ are worked out from the molar mass of the structure shown.

Legend:
Test in all cases: in vitro antifungal activity, broth and agar testing techniques
Format in all cases: cell-based
Aspergilius fumigatus = settings: for activity: in vitro; for MIC: one range stated jointly for Examples 5, 6 and 10 and the three fungi, read-out: minimum inhibitory concentration MIC
Text: (§1) The compounds of this invention are useful as antifungal agents.

Trichophyton rubrum = settings: for activity: in vitro; for MIC: one range stated jointly for Examples 5, 6 and 10 and the three fungi, read-out: minimum inhibitory concentration MIC
Text: as §1

Candida albicans = settings: for inhibitory activity: in vitro; for MIC: one range stated jointly for Examples 5, 6 and 10 and the three fungi, read-out: minimum inhibitory concentration MIC
Text: as §1

Trichophyton tonsurans = tested on: Trichophyton tonsurans
Text: as §1

[1] = tested on: Trichophyton schoenleinii
Text: as §1

Epidermophyton floccosum = tested on: Epidermophyton floccosum
Text: as §1

[2] = tested on: Trichophyton mentagrophytes
Text: as §1

CN1OC(c2ccccc2)CC1(Cn1ccnc1)c1cccs1 (single isomer, unassigned) [Example 5, 3-(1H-Imidazol-1-ylmethyl)-2-methyl-5-phenyl-3-(2-thienyl)isoxazolidine]
activity (Aspergilius fumigatus): good to moderate
MIC (Aspergilius fumigatus): 0.2 to 70 µg/mL (≈ 0.615 to 215 µM)
activity (Trichophyton rubrum): good to moderate
MIC (Trichophyton rubrum): 0.2 to 70 µg/mL (≈ 0.615 to 215 µM)
inhibitory activity (Candida albicans): good to moderate
MIC (Candida albicans): 0.2 to 70 µg/mL (≈ 0.615 to 215 µM)

CN1OC(c2ccc(Cl)cc2)CC1(Cn1ccnc1)c1ccco1 (single isomer, unassigned) [Example 1, 5-(4-Chlorophenyl)-3-(2-furanyl)-3-(1H-imidazol-1-ylmethyl) -2-methylisoxazolidine]
inhibitory activity (Trichophyton tonsurans): good to moderate
inhibitory activity [1]: good to moderate
inhibitory activity (Epidermophyton floccosum): good to moderate
inhibitory activity [2]: good to moderate
inhibitory activity (Candida albicans): good to moderate

CN1OC(COc2ccc(Cl)cc2)CC1(Cn1ccnc1)c1ccco1 (single isomer, unassigned) [Example 3, 5-(4-Chlorophenoxymethyl)-3-(2-furanyl)-3-(1H-imidazol-1-ylmethyl)-2-methylisoxazolidine]
inhibitory activity (Trichophyton tonsurans): good to moderate
inhibitory activity [1]: good to moderate
inhibitory activity (Epidermophyton floccosum): good to moderate
inhibitory activity [2]: good to moderate
inhibitory activity (Candida albicans): good to moderate

CN1OC(c2ccc(Cl)cc2)CC1(Cn1ccnc1)c1cccs1 (single isomer, unassigned) [Example 6, 5-(4-Chlorophenyl)-3-(1H-imidazol-1-ylmethyl)-2-methyl-3-(2-thienyl)isoxazolidine]
activity (Aspergilius fumigatus): good to moderate
MIC (Aspergilius fumigatus): 0.2 to 70 µg/mL (≈ 0.556 to 195 µM)
activity (Trichophyton rubrum): good to moderate
MIC (Trichophyton rubrum): 0.2 to 70 µg/mL (≈ 0.556 to 195 µM)
inhibitory activity (Candida albicans): good to moderate
MIC (Candida albicans): 0.2 to 70 µg/mL (≈ 0.556 to 195 µM)

Cc1ccc(SCC2CC(Cn3ccnc3)(c3cccs3)N(C)O2)cc1 (single isomer, unassigned) [Example 10, 3-(1H-Imidazol-1-ylmethyl)-2-methyl-5-[[(4-methylphenyl)thio]methyl]-3-(2-thienyl)isoxazolidine]
activity (Aspergilius fumigatus): good to moderate
MIC (Aspergilius fumigatus): 0.2 to 70 µg/mL (≈ 0.519 to 182 µM)
activity (Trichophyton rubrum): good to moderate
MIC (Trichophyton rubrum): 0.2 to 70 µg/mL (≈ 0.519 to 182 µM)
inhibitory activity (Candida albicans): good to moderate
MIC (Candida albicans): 0.2 to 70 µg/mL (≈ 0.519 to 182 µM)
